The values that follow come from patent US9029396B2, “Substituted indole derivatives” (Novartis AG, priority 2011, dated 2015).

Usually Tmax stands for the time from dosing to the highest level. As usually defined, the IC50 is the midpoint of a concentration-inhibition curve.

A short description of data set [1]: Dog pharmacokinetics after oral administration of compound of example No. 1. The format is in vivo, Beagle dogs. How it is done: A single dose of the compound of example 1 (3.0 mg/kg) was administered p.o. to 3 male Beagle dogs. Compound 1 was dosed as an aqueous suspension of the crystalline monohydrate form in Methylcellulose (0.5%): Tween 80 (1%) (90:10). Blood was taken in regular intervals by venipuncture, and the samples were analyzed for a period of up to 24 hours. The compounds of the examples 1, 2, and 3 were quantitatively assessed over time, and the results are tabulated below:
Key pharmacokinetic parameters (mean values±standard deviations (n=3) for 1, 2 and 3 after oral dosing of example No. 1.

The nature of data set [2]: Stability in gastric and intestinal simulated fluids at 37° C. The data set is classed as physicochemical. On the procedure:
Stability Assessments Stability of Cpd. Example No. 1 in Gastric and Intestinal Simulated Fluids at 37° C.:
Stability of compound Example No. 3
(Free form/acetate salt form) in gastric and intestinal simulated fluids at 37° C.: […]

The target of another data set is T1, PKC-alpha (Homo sapiens, UniProt P17252).
T1 construct: Both enzymes were full length human recombinant protein expressed in insect cells; purchased Invitrogen AG, Basel, Switzerland; host or cells: insect cells
The data set can be described thus: Protein kinase C alpha assay (Caliper mobility shift). The data set is classed as biochemical. As to conditions: full length human recombinant enzyme, 17 μM ATP; read-out: PKCα (IC50 in nM). On the procedure:
(§1) The compounds of the invention were tested for their activity on different PKC isotypes according to the following method. All assays were performed in 384 well microtiter plates. Each assay plate contained 8-point serial dilutions for 40 test compounds, as well as two 16-point serial dilutions of staurosporine as reference compound, plus 16 high- and 16 low controls. Liquid handling and incubation steps were done on a automated workstation equipped with a Innovadyne Nanodrop Express.
(§2) The assay plates were prepared by addition of 50 nL per well of compound solution in 90% DMSO. The kinase reactions were started by stepwise addition of 4.5 μl per well of a 2× peptide/ATP-solution and 4.5 μl per well of a 2× enzyme solution. The final concentration of reagents during kinase reaction were: 50 mM HEPES, pH 7.5, 1 mM DTT, 0.02% Tween20, 0.02% BSA, 0.6% DMSO, 10 mM beta-glycerophosphate, and 10 μM sodium orthovanadate. The peptide substrate used in the PKC-alpha and PKC-theta assays was Dy495-X5-ME-Mpr-RFARKGSLRQKNV-COOH. […]
(§3) Plates with terminated kinase reactions were transferred to the Caliper LC3000 workstations for reading. Phosphorylated and unphosphorylated peptides were separated using the Caliper microfluidic mobility shift technology and Kinase activities were calculated from the amounts of formed phospho-peptide.

In a further data set the target is T2, PKC-theta (Homo sapiens, UniProt Q04759).
T2 construct: Both enzymes were full length human recombinant protein expressed in insect cells; purchased Invitrogen AG, Basel, Switzerland; host or cells: insect cells
T2 sequence (Q04759 whole entry): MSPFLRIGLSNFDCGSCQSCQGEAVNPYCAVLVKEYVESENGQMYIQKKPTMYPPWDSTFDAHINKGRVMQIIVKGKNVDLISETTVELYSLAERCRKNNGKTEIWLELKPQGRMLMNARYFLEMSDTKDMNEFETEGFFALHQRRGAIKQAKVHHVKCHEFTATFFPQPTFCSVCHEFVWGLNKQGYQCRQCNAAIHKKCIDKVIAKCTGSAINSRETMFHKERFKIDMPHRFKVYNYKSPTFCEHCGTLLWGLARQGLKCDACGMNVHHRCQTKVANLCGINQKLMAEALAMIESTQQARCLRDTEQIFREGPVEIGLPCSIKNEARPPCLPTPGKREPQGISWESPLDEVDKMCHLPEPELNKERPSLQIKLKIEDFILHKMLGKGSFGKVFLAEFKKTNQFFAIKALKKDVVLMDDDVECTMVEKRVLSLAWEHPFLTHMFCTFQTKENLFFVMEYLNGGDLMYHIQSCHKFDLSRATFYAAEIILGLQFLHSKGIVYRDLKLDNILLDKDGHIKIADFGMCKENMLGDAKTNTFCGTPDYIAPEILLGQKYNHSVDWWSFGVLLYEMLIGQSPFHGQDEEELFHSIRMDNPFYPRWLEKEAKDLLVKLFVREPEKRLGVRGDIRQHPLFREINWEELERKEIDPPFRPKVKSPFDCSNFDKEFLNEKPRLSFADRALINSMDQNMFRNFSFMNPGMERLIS
The data set can be described thus: Protein kinase C theta assay (Caliper mobility shift). The data set is classed as biochemical. To be noted: full length human recombinant enzyme, 70 μM ATP; read-out: PKCθ (IC50 in nM). How it is done: as §1, §2, §3

Data set [3] in a line: Chemical stability of amorphous and crystalline solid. As to conditions: 1 week. The format is physicochemical.
The mark [4] stands for this setting: dog, blood, po, male Beagle dogs, example 1 3.0 mg/kg p.o.

Consider `Cc1cccc2c(C3=C(c4nc(N5CCNC6(CC6)C5)cc5ccccc45)C(=O)N(CO)C3=O)c[nH]c12` [Example 2, 3-[3-(4,7-Diaza-spiro[2.5]oct-7-yl)-isoquinolin-1-yl]-1-hydroxymethyl-4-(7-methyl-1H-indol-3-yl)-pyrrole-2,5-dione], for which the concentration at 0.083 h in data set [1] (dog, blood, po, male Beagle dogs, example 1 3.0 mg/kg p.o. (crystalline monohydrate suspension), 0.083 h) was determined as 10 nM. In data set [1] (setting [4]), the concentration at 0.25 h was 39.6 nM and the concentration at 0.5 h is 31.3 nM. In addition, in data set [1] (dog, blood, po, male Beagle dogs, example 1 3.0 mg/kg p.o., 0.75 h), the concentration at 0.75 h worked out at 19.1 nM. Besides, in data set [1] (dog, blood, po, male Beagle dogs, example 1 3.0 mg/kg p.o., 1 h), the concentration at 1 h came out at 6.3 nM. The concentration at 2 h in data set [1] (dog, blood, po, male Beagle dogs, example 1 3.0 mg/kg p.o., 2 h) stood at 7.7 nM. The molecule also showed a concentration at 3 h in data set [1] (dog, blood, po, male Beagle dogs, example 1 3.0 mg/kg p.o., 3 h) of 1 nM. The AUC d.n. result in data set [1] (dose normalized, mean ± SD (n=3), after oral dosing of example No. 1 to dogs) is on record as “low”. The Tmax in data set [1] (male, Beagle, dog, blood, 3 mg/kg, mean ± SD (n=3), after oral dosing of example No. 1 to dogs) turned out to be 24 ± 6 min.
`Cc1cccc2c(C3=C(c4nc(N5CCNC6(CC6)C5)cc5ccccc45)C(=O)N(COP(=O)(O)O)C3=O)c[nH]c12` [Example 1, Phosphoric acid mono-[3-[3-(4,7-diaza-spiro[2.5]oct-7-yl)-isoquinolin-1-yl]-4-(7-methyl-1H-indol-3-yl)-2,5-dioxo-2,5-dihydro-pyrrol-1-ylmethyl]ester]: the “Conversion of prodrug into parent compound in blood” value in data set [1] (after administration, example 3 is main component in blood after around an hour) is recorded as “is converted into compound of example 3”. The molecule also showed a concentration at 0.25 h in data set [1] (setting [4]) of 3.1 nM. Besides, the concentration at 0.5 h in data set [1] (setting [4]) amounted to 1.1 nM. In addition, the “Amount in Area % of compound example No. 1” value in data set [2] (FaSSIF pH 6.5, 37° C., 0 hours) is 95.1 Area %; in data set [2] (FaSSIF pH 6.5, 37° C., 1 hours), 93.8 Area %; in data set [2] (FaSSIF pH 6.5, 37° C., 2.5 hours), 92.3 Area %; in data set [2] (FaSSIF pH 6.5, 37° C., 4.2 hours), 90.5 Area %; in data set [2] (FaSSIF pH 6.5, 37° C., 7 hours), 87.7 Area %; in data set [2] (FeSSIF pH 5.8, 37° C., 0 hours), 95.0 Area %. Also, the “Amount in Area % of compound example No. 1” value in data set [2] (FeSSIF pH 5.8, 37° C., 1 hours) is recorded as 94.9 Area %; in data set [2] (FeSSIF pH 5.8, 37° C., 2.5 hours), 94.8 Area %; in data set [2] (FeSSIF pH 5.8, 37° C., 4.2 hours), 94.8 Area %; in data set [2] (FeSSIF pH 5.8, 37° C., 7 hours), 94.8 Area %; in data set [2] (SGF pH 2, 37° C., 0 hours), 95.9 Area %; in data set [2] (SGF pH 2, 37° C., 1 hours), 95.5 Area %. The “Amount in Area % of compound example No. 1” value is on record as 95.3 Area % in data set [2] (SGF pH 2, 37° C., 2.5 hours); 95.6 Area % in data set [2] (SGF pH 2, 37° C., 4.2 hours); 95.6 Area % in data set [2] (SGF pH 2, 37° C., 7 hours). For the same molecule, the IC50 at PKC-alpha came to 1680 nM; at PKC-theta, 462 nM. Further, the Purity after exposure in data set [3] (Amorphous, initial purity 98.5 %, 50 ° C.) was found to be 95.8%; in data set [3] (Amorphous, initial purity 98.5 %, 80 ° C.), 89.7%; in data set [3] (Crystalline mono-hydrate, initial purity 100 %, 50 ° C.), 100%; in data set [3] (Crystalline mono-hydrate, initial purity 100 %, 80 ° C.) it was 100%.
